Assay results taken from patent US20230293526A1, “METHOD FOR TREATING CANCER WITH A REVERSE TRANSCRIPTASE INHIBITOR” (PrimeFour Therapeutics, Inc., priority 2020, published 2023).

Assays:
Assay in all cases: Cell proliferation Ex.3
Type in all cases: cell-based
[1] = test system: K-562; settings: Homo sapiens, K562
[2] = test system: MV4-11; settings: Homo sapiens
[3] = test system: 786O; settings: Homo sapiens
[4] = test system: UO31; settings: Homo sapiens, UO-31
[5] = test system: CLS439
[6] = test system: 22RV1; settings: Homo sapiens
[7] = test system: RD; settings: Homo sapiens
[8] = test system: SW620; settings: Homo sapiens, SW-620
[9] = test system: SKMEL28; settings: Homo sapiens, SK-MEL-28
[10] = test system: SKOV3; settings: Homo sapiens, SK-OV-3
[11] = test system: MG63; settings: Homo sapiens, MG-63
[12] = test system: HCT15; settings: Homo sapiens, HCT-15
[13] = test system: SAOS2; settings: Homo sapiens, SAOS-2
[14] = test system: RDES; settings: RD-ES
[15] = test system: A2780; settings: Homo sapiens
[16] = test system: KASUMI
[17] = test system: TE671; settings: Homo sapiens, TE-671
[18] = test system: MHHES1; settings: Homo sapiens, MHH-ES-1
[19] = test system: NCI-H292; settings: Homo sapiens
[20] = test system: HT1080; settings: Homo sapiens, HT-1080
[21] = test system: HEPG2; settings: Homo sapiens
[22] = test system: A673; settings: Homo sapiens
[23] = test system: CASKI; settings: Homo sapiens, Ca-Ski
Protocol: (§1) A dose response relationship on cell proliferation was assessed for Compound 13 on 140 tumor cell lines. […] Cells were cultured in the appropriate media. For the assays, cells were seeded in white cell culture-treated flat and clear bottom multiwell plates and incubated at 37° C. overnight before compound was added. […] dependent on the medium, cell plates were equilibrated to room temperature for one hour, CellTiterGlo reagent (Promega) was added and luminescence was measured approximately an hour later using a luminometer. Raw data were converted into percent cell viability relative to the high and low control, which were set to 10000 and 000, respectively.

[24] = test system: MINO; settings: Homo sapiens
Protocol: as §1

## C#C[C@]1(CO)O[C@@H](n2cc(F)c(N)nc2=O)C[C@@H]1O [compound 9]
[1]; K-562, 72 h
  IC50: > 10 µM
[1]; K-562, 120 h
  IC50: > 10 µM
[1]; K-562, 168 h
  IC50: > 10 µM
[2]; MV4-11, 72 h
  IC50: 2.48 µM
[2]; MV4-11, 120 h
  IC50: 0.251 µM
[2]; MV4-11, 168 h
  IC50: 1.72 µM
[3]; 786-0, 72 h
  IC50: > 10 µM
[3]; 786-0, 120 h
  IC50: > 10 µM
[3]; 786-0, 168 h
  IC50: > 10 µM
[4]; UO31, 72 h
  IC50: > 10 µM
[4]; UO31, 120 h
  IC50: > 10 µM
[4]; UO31, 168 h
  IC50: > 10 µM
[5]; CLS439, 72 h
  IC50: > 10 µM
[5]; CLS439, 120 h
  IC50: > 10 µM
[5]; CLS439, 168 h
  IC50: > 10 µM
[6]; 22Rv1, 72 h
  IC50: 3.8 µM
[6]; 22Rv1, 120 h
  IC50: 3.28 µM
[6]; 22Rv1, 168 h
  IC50: 3.69 µM
[7]; 72 h
  IC50: > 10 µM
[7]; 120 h
  IC50: > 10 µM
[7]; 168 h
  IC50: > 10 µM
[8]; SW620, 72 h
  IC50: > 10 µM
[8]; SW620, 120 h
  IC50: > 10 µM
[8]; SW620, 168 h
  IC50: > 10 µM
[9]; SKMEL28, 72 h
  IC50: > 10 µM
[9]; SKMEL28, 120 h
  IC50: > 10 µM
[9]; SKMEL28, 168 h
  IC50: > 10 µM
[10]; SKOV3, 72 h
  IC50: > 10 µM
[10]; SKOV3, 120 h
  IC50: > 10 µM
[10]; SKOV3, 168 h
  IC50: > 10 µM
[11]; MG63, 72 h
  IC50: > 10 µM
[11]; MG63, 120 h
  IC50: > 10 µM
[11]; MG63, 168 h
  IC50: > 10 µM
[12]; HCT15, 72 h
  IC50: > 10 µM
[12]; HCT15, 120 h
  IC50: > 10 µM
[12]; HCT15, 168 h
  IC50: > 10 µM
[13]; SAOS2, 72 h
  IC50: > 10 µM
[13]; SAOS2, 120 h
  IC50: > 10 µM
[13]; SAOS2, 168 h
  IC50: > 10 µM
[14]; 72 h
  IC50: > 10 µM
[14]; 120 h
  IC50: > 10 µM
[14]; 168 h
  IC50: > 10 µM
[15]; A2780, 72 h
  IC50: > 10 µM
[15]; A2780, 120 h
  IC50: > 10 µM
[15]; A2780, 168 h
  IC50: > 10 µM
[16]; 72 h
  IC50: > 10 µM
[16]; 120 h
  IC50: > 10 µM
[16]; 168 h
  IC50: > 10 µM
[17]; TE671, 72 h
  IC50: > 10 µM
[17]; TE671, 120 h
  IC50: > 10 µM
[17]; TE671, 168 h
  IC50: > 10 µM
[18]; MHHES1, 72 h
  IC50: > 10 µM
[18]; MHHES1, 120 h
  IC50: > 10 µM
[18]; MHHES1, 168 h
  IC50: > 10 µM
[19]; NCI-H292, 72 h
  IC50: > 10 µM
[19]; NCI-H292, 120 h
  IC50: > 10 µM
[19]; NCI-H292, 168 h
  IC50: > 10 µM
[20]; HT1080, 72 h
  IC50: > 10 µM
[20]; HT1080, 120 h
  IC50: > 10 µM
[20]; HT1080, 168 h
  IC50: > 10 µM
[21]; HepG2, 72 h
  IC50: > 10 µM
[21]; HepG2, 120 h
  IC50: > 10 µM
[21]; HepG2, 168 h
  IC50: > 10 µM
[22]; A673, 72 h
  IC50: > 10 µM
[22]; A673, 120 h
  IC50: > 10 µM
[22]; A673, 168 h
  IC50: > 10 µM
[23]; 72 h
  IC50: > 10 µM
[23]; 120 h
  IC50: > 10 µM
[23]; 168 h
  IC50: > 10 µM
[24]; 72 h
  IC50: 0.34 µM
[24]; 120 h
  IC50: 0.049 µM
[24]; 168 h
  IC50: 0.065 µM
